Data taken from the supplement of paper PMC11451515.

Columns and labels:
SEM cells [1] = experiment: cell viability relative to DMSO control; higher = less cytotoxic; conditions: 48 h
Method in brief: (§1)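 NOMO1, SEM and P12-Ichikawa leukemia cells spent at least four passages adapting to each medium before use. They were seeded at 500 cells/well (NOMO1, SEM) or 1000 cells/well (P12-Ichikawa) in 5 μl in 1536-well plates and pin-dosed with library compounds in DMSO at 11 threefold steps from 47 μM down to 0.79 nM. After 48 h at 37°C, CellTiter-Glo One luminescence was read. Viability is reported as a percentage of the DMSO wells on each plate, with cell-free wells as background.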

P12-Ichikawa [2] = experiment: as above; conditions: 48 h
Method in brief: as §1

NOMO1 [3] = experiment: as above; conditions: RPMI 5 mM glucose + 10% FBS, 48 h
Method in brief: as §1

SEM cells [4] = experiment: AUC of viability dose-response curve (% viability x log10 dose units); higher = less sensitive; conditions: 48 h
Method in brief: (§2)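 In 1536-well plates, leukemia cells adapted to each medium (500 or 1000 cells/well) were exposed for 48 h at 37°C to library compounds in DMSO across 11 threefold doses, 47 μM down to 0.79 nM. Viability was read by CellTiter-Glo One luminescence and normalised per plate to DMSO and cell-free wells. A four-parameter log-logistic fit over log10 doses was integrated by trapezoidal rule. This yielded the area under the curve, with over-full-viability curves scaled and quality-control failures dropped.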

P12-Ichikawa [5] = experiment: as above; conditions: 48 h
Method in brief: as §2

NOMO1 [6] = experiment: as above; conditions: 48 h
Method in brief: as §2

[7] = HPLM + 10% dialyzed FBS, 0.000781 µM
[8] = HPLM + 10% dialyzed FBS, 0.00234 µM
[9] = HPLM + 10% dialyzed FBS, 0.00702 µM
[10] = HPLM + 10% dialyzed FBS, 0.0211 µM
[11] = HPLM + 10% dialyzed FBS, 0.0632 µM
[12] = HPLM + 10% dialyzed FBS, 0.19 µM
[13] = HPLM + 10% dialyzed FBS, 0.569 µM
[14] = HPLM + 10% dialyzed FBS, 1.71 µM
[15] = HPLM + 10% dialyzed FBS, 5.12 µM
[16] = HPLM + 10% dialyzed FBS, 15.4 µM
[17] = HPLM + 10% dialyzed FBS, 46.1 µM
[18] = RPMI 5 mM glucose + 10% dialyzed FBS, 0.000781 µM
[19] = RPMI 5 mM glucose + 10% dialyzed FBS, 0.00234 µM
[20] = RPMI 5 mM glucose + 10% dialyzed FBS, 0.00702 µM
[21] = RPMI 5 mM glucose + 10% dialyzed FBS, 0.0211 µM
[22] = RPMI 5 mM glucose + 10% dialyzed FBS, 0.0632 µM
[23] = RPMI 5 mM glucose + 10% dialyzed FBS, 0.19 µM
[24] = RPMI 5 mM glucose + 10% dialyzed FBS, 0.569 µM
[25] = RPMI 5 mM glucose + 10% dialyzed FBS, 1.71 µM
[26] = RPMI 5 mM glucose + 10% dialyzed FBS, 5.12 µM
[27] = RPMI 5 mM glucose + 10% dialyzed FBS, 15.4 µM
[28] = RPMI 5 mM glucose + 10% dialyzed FBS, 46.1 µM
[29] = RPMI 5 mM glucose + 10% dialyzed FBS

Work on `CCCCNc1cc(C(=O)O)cc([S+](N)(=O)[O-])c1Oc1ccccc1` yielded a cell viability (SEM cells [1]; [7]) of 80.3%, a cell viability (SEM cells [1]; [8]) of 97.7% and a cell viability (SEM cells [1]; [9]) of 100%. For the same compound, the cell viability (SEM cells [1]; [10]) was 101%, the cell viability (SEM cells [1]; [11]) was 103% and the cell viability (SEM cells [1]; [12]) was 95.8%. For the same compound, the cell viability (SEM cells [1]; [13]) was 99.9%, the cell viability (SEM cells [1]; [14]) was 107% and the cell viability (SEM cells [1]; [15]) was 115%. The cell viability (SEM cells [1]; [16]) was 116%, the cell viability (SEM cells [1]; [17]) was 118% and the cell viability (SEM cells [1]; RPMI 5 mM glucose + 10% FBS, 0.000781 µM) was 111%. The cell viability (SEM cells [1]; RPMI 5 mM glucose + 10% FBS, 0.00234 µM) was 110%, the cell viability (SEM cells [1]; RPMI 5 mM glucose + 10% FBS, 0.00702 µM) was 117% and the cell viability (SEM cells [1]; RPMI 5 mM glucose + 10% FBS, 0.0211 µM) was 114%. The cell viability (SEM cells [1]; RPMI 5 mM glucose + 10% FBS, 0.0632 µM) was 111%, the cell viability (SEM cells [1]; RPMI 5 mM glucose + 10% FBS, 0.19 µM) was 109% and the cell viability (SEM cells [1]; RPMI 5 mM glucose + 10% FBS, 0.569 µM) was 107%. It also gave a cell viability (SEM cells [1]; RPMI 5 mM glucose + 10% FBS, 1.71 µM) of 112%, a cell viability (SEM cells [1]; RPMI 5 mM glucose + 10% FBS, 5.12 µM) of 116% and a cell viability (SEM cells [1]; RPMI 5 mM glucose + 10% FBS, 15.4 µM) of 141%. For the same compound, the cell viability (SEM cells [1]; RPMI 5 mM glucose + 10% FBS, 46.1 µM) was 111%, the cell viability (SEM cells [1]; [18]) was 108% and the cell viability (SEM cells [1]; [19]) was 110%. The cell viability (SEM cells [1]; [20]) was 109%, the cell viability (SEM cells [1]; [21]) was 113% and the cell viability (SEM cells [1]; [22]) was 115%. The cell viability (SEM cells [1]; [23]) was 126%, the cell viability (SEM cells [1]; [24]) was 107% and the cell viability (SEM cells [1]; [25]) was 123%. It also gave a cell viability (SEM cells [1]; [26]) of 135%, a cell viability (SEM cells [1]; [27]) of 120% and a cell viability (SEM cells [1]; [28]) of 128%. It also gave a cell viability (P12-Ichikawa [2]; [7]) of 117%, a cell viability (P12-Ichikawa [2]; [8]) of 116% and a cell viability (P12-Ichikawa [2]; [9]) of 118%. The cell viability (P12-Ichikawa [2]; [10]) was 116%, the cell viability (P12-Ichikawa [2]; [11]) was 124% and the cell viability (P12-Ichikawa [2]; [12]) was 120%. It also gave a cell viability (P12-Ichikawa [2]; [13]) of 121%, a cell viability (P12-Ichikawa [2]; [14]) of 118% and a cell viability (P12-Ichikawa [2]; [15]) of 117%. For the same compound, the cell viability (P12-Ichikawa [2]; [16]) was 128%, the cell viability (P12-Ichikawa [2]; [17]) was 127% and the cell viability (P12-Ichikawa [2]; [18]) was 111%. The cell viability (P12-Ichikawa [2]; [19]) was 119%, the cell viability (P12-Ichikawa [2]; [20]) was 115% and the cell viability (P12-Ichikawa [2]; [21]) was 115%. It also gave a cell viability (P12-Ichikawa [2]; [22]) of 118%, a cell viability (P12-Ichikawa [2]; [23]) of 117% and a cell viability (P12-Ichikawa [2]; [24]) of 116%. It also gave a cell viability (P12-Ichikawa [2]; [25]) of 113%, a cell viability (P12-Ichikawa [2]; [26]) of 124% and a cell viability (P12-Ichikawa [2]; [27]) of 124%. It also gave a cell viability (P12-Ichikawa [2]; [28]) of 116%, a cell viability (NOMO1 [3]; 0.000781 µM) of 118% and a cell viability (NOMO1 [3]; 0.00234 µM) of 113%. The cell viability (NOMO1 [3]; 0.00702 µM) was 128%, the cell viability (NOMO1 [3]; 0.0211 µM) was 127% and the cell viability (NOMO1 [3]; 0.0632 µM) was 129%. It also gave a cell viability (NOMO1 [3]; 0.19 µM) of 115%, a cell viability (NOMO1 [3]; 0.569 µM) of 124% and a cell viability (NOMO1 [3]; 1.71 µM) of 120%. It also gave a cell viability (NOMO1 [3]; 5.12 µM) of 136%, a cell viability (NOMO1 [3]; 15.4 µM) of 146% and a cell viability (NOMO1 [3]; 46.1 µM) of 135%. The “AUC of viability dose-response curve” value (SEM cells [4]; HPLM + 10% dialyzed FBS) was 419, the “AUC of viability dose-response curve” value (SEM cells [4]; RPMI 5 mM glucose + 10% FBS) was 433 and the “AUC of viability dose-response curve” value (SEM cells [4]; [29]) was 440. The “AUC of viability dose-response curve” value (P12-Ichikawa [5]; HPLM + 10% dialyzed FBS) was 458, the “AUC of viability dose-response curve” value (P12-Ichikawa [5]; RPMI 5 mM glucose + 10% FBS) was 465 and the “AUC of viability dose-response curve” value (P12-Ichikawa [5]; [29]) was 465. The “AUC of viability dose-response curve” value (NOMO1 [6]; HPLM + 10% dialyzed FBS) was 477, the “AUC of viability dose-response curve” value (NOMO1 [6]; RPMI 5 mM glucose + 10% FBS) was 427 and the “AUC of viability dose-response curve” value (NOMO1 [6]; [29]) was 461.

`CC(=O)Nc1nc(C)c(-c2ccc(Cl)c([S+](=O)([O-])NCCO)c2)s1` was tested, and the “AUC of viability dose-response curve” value (SEM cells [4]; HPLM + 10% dialyzed FBS) was 366, the “AUC of viability dose-response curve” value (SEM cells [4]; RPMI 5 mM glucose + 10% FBS) was 345 and the “AUC of viability dose-response curve” value (SEM cells [4]; [29]) was 344. The “AUC of viability dose-response curve” value (P12-Ichikawa [5]; HPLM + 10% dialyzed FBS) was 374, the “AUC of viability dose-response curve” value (P12-Ichikawa [5]; RPMI 5 mM glucose + 10% FBS) was 326 and the “AUC of viability dose-response curve” value (P12-Ichikawa [5]; [29]) was 340. For the same compound, the “AUC of viability dose-response curve” value (NOMO1 [6]; HPLM + 10% dialyzed FBS) was 364, the “AUC of viability dose-response curve” value (NOMO1 [6]; RPMI 5 mM glucose + 10% FBS) was 385 and the “AUC of viability dose-response curve” value (NOMO1 [6]; [29]) was 362.
